Legend:
[1] = molecular target: human serotonin 5-HT6 receptor (Homo sapiens, UniProt P50406); test: [3H]LSD binding assay for cloned 5-HT6 receptors
Sequence of human serotonin 5-HT6 receptor (P50406 whole entry): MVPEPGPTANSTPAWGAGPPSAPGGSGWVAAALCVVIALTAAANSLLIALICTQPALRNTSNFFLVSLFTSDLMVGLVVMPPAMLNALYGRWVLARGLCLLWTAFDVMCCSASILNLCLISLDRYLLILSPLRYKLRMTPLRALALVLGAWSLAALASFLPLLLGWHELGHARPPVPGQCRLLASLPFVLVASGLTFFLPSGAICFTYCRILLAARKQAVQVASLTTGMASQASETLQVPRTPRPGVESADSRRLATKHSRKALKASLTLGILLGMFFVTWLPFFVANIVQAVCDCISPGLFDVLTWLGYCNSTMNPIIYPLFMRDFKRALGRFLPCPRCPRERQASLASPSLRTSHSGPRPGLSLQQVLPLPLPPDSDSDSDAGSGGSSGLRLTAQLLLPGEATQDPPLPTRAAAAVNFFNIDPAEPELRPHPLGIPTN

| Structure (SMILES) | IC50 [1] | melting point |
| --- | --- | --- |
| CCn1c(=O)c2c(N3CCN(C)CC3)cc(Cl)cc2n(Cc2ccccc2)c1=O [Example 2, 1-benzyl-7-chloro-3-ethyl-5-(4-methyl-piperazin-1-yl)-1H-quinazoline-2,4-dione] | 3.1 nM | 155 to 159 °C |
| CCCCn1c(=O)c2c(N3CCN(C)CC3)cc(Cl)cc2n(Cc2ccccc2)c1=O [Example 4, 1-benzyl-3-butyl-7-chloro-5-(4-methyl-piperazin-1-yl)-1H-quinazoline-2,4-dione] | 2.8 nM |  |
| CC(C)CCn1c(=O)c2c(N3CCN(C)CC3)cc(Cl)cc2n(Cc2ccccc2)c1=O [Example 5, 1-benzyl-7-chloro-3-(3-methyl-butyl)-5-(4-methyl-piperazin-1-yl)-1H-quinazoline-2,4-dione] | 3.6 nM | 62 to 68 °C |
| CN1CCN(c2cc(Cl)cc3c2c(=O)n(CC2CCCCC2)c(=O)n3Cc2ccccc2)CC1 [Example 6, 1-benzyl-7-chloro-3-cyclohexylmethyl-5-(4-methyl-piperazin-1-yl)-1H-quinazoline-2,4-dione] | 4.2 nM | 163 to 169 °C |
| CN1CCN(c2cc(Cl)cc3c2c(=O)n(-c2ccccc2)c(=O)n3Cc2ccccc2)CC1 [Example 8, 1-benzyl-7-chloro-5-(4-methyl-piperazin-1-yl)-3-phenyl-1H-quinazoline-2,4-dione] | 167 nM | 111 to 119 °C |
| COc1ccc(-n2c(=O)c3c(N4CCN(C)CC4)cc(Cl)cc3n(Cc3ccccc3)c2=O)cc1 [Example 9, 1-benzyl-7-chloro-3-(4-methoxy-phenyl)-5-(4-methyl-piperazin-1-yl)-1H-quinazoline-2,4-dione] | 12.4 nM | 155 to 158 °C |
| CN1CCN(c2cc(Cl)cc3c2c(=O)n(Cc2cccc(Br)c2)c(=O)n3Cc2ccccc2)CC1 [Example 15, 1-benzyl-3-(3-bromo-benzyl)-7-chloro-5-(4-methyl-piperazin-1-yl)-1H-quinazoline-2,4-dione] | 2.7 nM | 154 to 157 °C |
| CN1CCN(c2cc(Cl)cc3c2c(=O)n(Cc2ccc(Br)cc2)c(=O)n3Cc2ccccc2)CC1 [Example 16, 1-benzyl-3-(4-bromo-benzyl)-7-chloro-5-(4-methyl-piperazin-1-yl)-1H-quinazoline-2,4-dione] | 3.3 nM | 93 to 98 °C |
| CN1CCN(c2cc(Cl)cc3c2c(=O)n(Cc2ccc(I)cc2)c(=O)n3Cc2ccccc2)CC1 [Example 21, 1-benzyl-7-chloro-3-(4-iodo-benzyl)-5-(4-methyl-piperazin-1-yl)-1H-quinazoline-2,4-dione] | 4.7 nM |  |
| Cc1cccc(Cn2c(=O)c3c(N4CCN(C)CC4)cc(Cl)cc3n(Cc3ccccc3)c2=O)c1 [Example 23, 1-benzyl-7-chloro-3-(3-methyl-benzyl)-5-(4-methyl-piperazin-1-yl)-1H-quinazoline-2,4-dione] | 2.6 nM | 171 to 175 °C |
| COc1cccc(Cn2c(=O)c3c(N4CCN(C)CC4)cc(Cl)cc3n(Cc3ccccc3)c2=O)c1 [Example 26, 1-benzyl-7-chloro-3-(3-methoxy-benzyl)-5-(4-methyl-piperazin-1yl)-1H-quinazoline-2,4-dione] | 7.9 nM | 98 to 110 °C |
| COc1ccc(Cn2c(=O)c3c(N4CCN(C)CC4)cc(Cl)cc3n(Cc3ccccc3)c2=O)cc1 [Example 27, 1-benzyl-7-chloro-3-(4-methoxy-benzyl)-5-(4-methyl-piperazin-1-yl)-1H-quinazoline-2,4-dione] | 10.2 nM | 81 to 89 °C |
| CN1CCN(c2cc(Cl)cc3c2c(=O)n(Cc2ccccc2O)c(=O)n3Cc2ccccc2)CC1 [Example 28, 1-benzyl-7-chloro-3-(2-hydroxy-benzyl)-5-(4-methyl-piperazin-1-yl)-1H-quinazoline-2,4-dione] | 2.5 nM | 130 to 132 °C |
| CN1CCN(c2cc(Cl)cc3c2c(=O)n(Cc2cccc(O)c2)c(=O)n3Cc2ccccc2)CC1 [Example 29, 1-benzyl-7-chloro-3-(3-hydroxy-benzyl)-5-(4-methyl-piperazin-1-yl)-1H-quinazoline-2,4-dione] | 15 nM | 234 to 236 °C |
| CN1CCN(c2cc(Cl)cc3c2c(=O)n(Cc2ccc(O)cc2)c(=O)n3Cc2ccccc2)CC1 [Example 30, 1-benzyl-7-chloro-3-(4-hydroxy-benzyl)-5-(4-methyl-piperazin-1-yl)-1H-quinazoline-2,4-dione] | 27 nM | 138 to 140 °C |
| CN1CCN(c2cc(Cl)cc3c2c(=O)n(Cc2ccc([N+](=O)[O-])cc2)c(=O)n3Cc2ccccc2)CC1 [Example 33, 1-benzyl-7-chloro-5-(4-methyl-piperazin-1-yl)-3-(4-nitro-benzyl)-1H-quinazoline-2,4-dione] | 15.4 nM | 109 to 113 °C |
| CN1CCN(c2cc(Cl)cc3c2c(=O)n(Cc2ccccc2N)c(=O)n3Cc2ccccc2)CC1 [Example 34, 3-(2-amino-benzyl)-1-benzyl-7-chloro-5-(4-methyl-piperazin-1-yl)-1H-quinazoline-2,4-dione] | 2.5 nM |  |
| CN1CCN(c2cc(Cl)cc3c2c(=O)n(Cc2cccc(N)c2)c(=O)n3Cc2ccccc2)CC1 [Example 35, 3-(3-amino-benzyl)-1-benzyl-7-chloro-5-(4-methyl-piperazin-1-yl)-1H-quinazoline-2,4-dione] | 40.2 nM | 260 to 265 °C |
| CN1CCN(c2cc(Cl)cc3c2c(=O)n(Cc2ccc(N)cc2)c(=O)n3Cc2ccccc2)CC1 [Example 36, 3-(4-amino-benzyl)-1-benzyl-7-chloro-5-(4-methyl-piperazin-1-yl)-1H-quinazoline-2,4-dione] | 22.1 nM | 93 to 96 °C |
| CN1CCN(c2cc(Cl)cc3c2c(=O)n(Cc2ccc(C#N)cc2)c(=O)n3Cc2ccccc2)CC1 [Example 37, 4-[1-benzyl-7-chloro-5-(4-methyl-piperazin-1-yl)-2,4-dioxo-1,4-dihydro-2H-quinazoline-3-ylmethyl]-benzonitrile] | 27.1 nM | 99 to 105 °C |
| COC(=O)c1ccc(Cn2c(=O)c3c(N4CCN(C)CC4)cc(Cl)cc3n(Cc3ccccc3)c2=O)cc1 [Example 38, 4-[1-benzyl-7-chloro-5-(4-methyl-piperazin-1-yl)-2,4-dioxo-1,4-dihydro-2H-quinazoline-3-ylmethyl]-benzoic acid methyl ester] | 2.7 nM | 90 to 94 °C |
| Cc1ccc(Cn2c(=O)c3c(N4CCN(C)CC4)cc(Cl)cc3n(Cc3ccccc3)c2=O)cc1C [Example 39, 1-benzyl-7-chloro-3-(3,4-dimethyl-benzyl)-5-(4-methyl-piperazin-1-yl)-1H-quinazoline-2,4-dione] | 5.1 nM | 96 to 99 °C |
| CC(C)Cc1cccc(CCCn2c(=O)c3c(N4CCN(C)CC4)cc(Cl)cc3n(Cc3ccccc3)c2=O)c1 [Example 45, 1-benzyl-7-chloro-3-[3-(3-isobutyl-phenyl)-propyl]-5-(4-methyl-piperazin-1-yl)-1H-quinazoline-2,4-dione] | 10.5 nM | 56 to 62 °C |

Second part, the compound after the results:

| IC50 [1] | melting point | Structure (SMILES) |
| --- | --- | --- |
| 3.2 nM | 75 to 89 °C | CN1CCN(c2cc(Cl)cc3c2c(=O)n(Cc2cccc4ccccc24)c(=O)n3Cc2ccccc2)CC1 [Example 46, 1-benzyl-7-chloro-5-(4-methyl-piperazin-1-yl)-3-naphthalen-1-ylmethyl-1H-quinazoline-2,4-dione] |
| 33.3 nM | 94 to 100 °C | CN1CCN(c2cc(Cl)cc3c2c(=O)n(Cc2ccncc2)c(=O)n3Cc2ccccc2)CC1 [Example 48, 1-benzyl-7-chloro-5-(4-methyl-piperazin-1-yl)-3-pyridin-4-ylmethyl-1H-quinazoline-2,4-dione] |
| > 1000 nM | 208 to 210 °C | CN1CCN(c2cc(Cl)cc3[nH]c(=O)n(Cc4ccccc4)c(=O)c23)CC1 [Example 49, 3-benzyl-7-chloro-5-(4-methyl-piperazin-1-yl)-1H-quinazoline-2,4-dione] |
| > 1000 nM | 132 to 136 °C | CN1CCN(c2cc(Cl)cc3c2c(=O)n(Cc2ccccc2)c(=O)n3C)CC1 [Example 50, 3-benzyl-7-chloro-1-methyl-5-(4-methyl-piperazin-1-yl)-1H-quinazoline-2,4-dione] |
| 729 nM | 68 to 75 °C | CCn1c(=O)n(Cc2ccccc2)c(=O)c2c(N3CCN(C)CC3)cc(Cl)cc21 [Example 51, 3-benzyl-7-chloro-1-ethyl-5-(4-methyl-piperazin-1-yl)-1H-quinazoline-2,4-dione] |
| 169 nM |  | CCCn1c(=O)n(Cc2ccccc2)c(=O)c2c(N3CCN(C)CC3)cc(Cl)cc21 [Example 52, 3-benzyl-7-chloro-5-(4-methyl-piperazin-1-yl)-1-propyl-1H-quinazoline-2,4-dione] |
| 30.2 nM |  | CCCCn1c(=O)n(Cc2ccccc2)c(=O)c2c(N3CCN(C)CC3)cc(Cl)cc21 [Example 53, 3-benzyl-1-butyl-7-chloro-5-(4-methyl-piperazin-1-yl)-1H-quinazoline-2,4-dione] |
| 3.4 nM | 115 to 123 °C | O=c1c2c(N3CCNCC3)cc(Cl)cc2n(Cc2ccccc2)c(=O)n1Cc1ccccc1 [Example 57, 1,3-dibenzyl-7-chloro-5-piperazin-1-yl-1H-quinazoline-2,4-dione] |
| 2.3 nM | 122 to 125 °C | COc1ccccc1Cn1c(=O)c2c(N3CCNCC3)cc(Cl)cc2n(Cc2ccccc2)c1=O [Example 63, 1-benzyl-7-chloro-3-(2-methoxy-benzyl)-5-piperazin-1-yl-1H-quinazoline-2,4-dione] |
| 6.4 nM | 124 to 130 °C | COc1cccc(Cn2c(=O)c3c(N4CCNCC4)cc(Cl)cc3n(Cc3ccccc3)c2=O)c1 [Example 64, 1-benzyl-7-chloro-3-(3-methyoxy-benzyl)-5-piperazin-1-yl-1H-quinazoline-2,4-dione] |
| 3.6 nM |  | Nc1ccccc1Cn1c(=O)c2c(N3CCNCC3)cc(Cl)cc2n(Cc2ccccc2)c1=O [Example 67, 3-(2-amino-benzyl)-1-benzyl-7-chloro-5-piperazin-1-yl-1H-quinazoline-2,4-dione] |

Reference: US20090203708A1, “NOVEL SUBSTITUTED-1-H-QUINAZOLINE-2,4-DIONE DERIVATIVES, PREPARATION METHOD THEREOF AND PHARMACEUTICAL COMPOSITION CONTAINING THE SAME” (Korea Research Institute of Chemical Technology, priority 2006, published 2009)
